# Legend:
# Design in all cases: species or system rat
# [1] = test system: intestinal peristaltic motility; assay: Test 2: peristaltic motility, combinations of HAS with 6-S or 6-G, same manner as Test 1; conditions: for AUC (area under curve peak) / Mean-PPA (mean of peak pressure amplitude) / PF (peak frequency): value before addition = 100%; for enhancement of the prokinetic effect on peristaltic motility by combining with HAS (in words): combined with HAS at a dose too low to exert the effect when used alone
# Experimental: (§1) Normal rats which fasted overnight with free access to water were decapitated for mercy killing. Immediately, the intestine was removed and cut into 3-4 cm pieces, which were used as test samples. The removed test samples were immersed in an organ bath (perfusion rate: 3.5 mL/min) filled with a Krebs solution warmed at 32-33° C. and saturated with 95% O2/5% CO2 gas mixture. […] From the mouth side, physiological saline was injected at a certain rate (0.15 mL/min), and the frequency and amplitude of the pressure change in the lumen caused by the intestinal peristaltic motility were measured by means of a microchip pressure transducer (SPR-524, Millar Instruments Co.). After confirmation of the stabilized peristaltic motility in the test samples (intestinal tract), a test drug was added to the organ bath. Before and after the addition, the change of peristaltic motility for 10 minutes was determined by using recorded wave profile for the mean peak pressure amplitude (mean-PPA), the area under curve (AUC) of the peak and the peak frequency (PF) in the transducer. The resulting recorded wave profile was converted into numerical terms as the amplitude or frequency of the peristaltic motility by an analysis software. The value before the addition of the test drug was regarded as 100% for comparison and evaluation.
# On the basis of the prokinetic effect of HAS, 6-S and 6-G on peristaltic motility in Test 1, the change of the prokinetic effect in a combination of these compounds was investigated in the same manner as in Test 1.
# [2] = test system: large intestinal peristaltic motility; assay: Test 1: action of each Daikenchuto component on peristaltic motility of the isolated intestine in an organ bath; conditions: for AUC (area under curve peak) / Mean-PPA (mean of peak pressure amplitude) / PF (peak frequency): value before addition = 100%
# Experimental: Investigation of the Action of Each Crude Drug Component Contained in Daikenchuto on the Large Intestinal Peristaltic Motility:
# Rats were used as experimental animals. According to the following way, the components contained in Daikenchuto, i.e., HAS, 6-shogaol (hereinafter abbreviated as “6-S”) and 6-gingerol (hereinafter abbreviated as “6-G”), were tested for the action on the peristaltic motility.
# Male SD rats (provided by Japan Charles River Co.; SPF animals) were obtained at 6 weeks of age (body weight: 190-220 g) and the test was started at 7-9 weeks of age (body weight: 220-280 g at acquisition and using). Breeding was conducted at a temperature of 20-26° C. and a humidity of 35-75%, in aeration frequency of 15-25/hour in a cage under lighting for 12 hours (7 o'clock to 19 o'clock) per day, wherein 4 rats were placed in a cage. For feeding, solid feed MF (Oriental Yeast Co., Ltd.) was used, and the rats were able to freely drink ordinary tap water (Amimachi, Ibaraki Pref).
# as §1
# [3] = test system: intestinal peristaltic motility; assay: Test 4: peristaltic motility, HAS and bethanechol chloride alone and combined, same manner as Test 1; conditions: for AUC (area under curve peak) / Mean-PPA (mean of peak pressure amplitude) / PF (peak frequency): value before addition = 100%
# Experimental: as §1, with “After confirmation of the stabilized peristaltic motility in the test samples (intestinal tract), a test drug was added to the organ bath. Before and after the addition, the change of peristaltic motility for 10 minutes was determined by using recorded wave profile for the mean peak pressure amplitude (mean-PPA), the area under curve (AUC) of the peak and the peak frequency (PF) in the transducer.” left out
# [4] = test system: intestinal peristaltic motility; assay: Test 3: peristaltic motility, HAS and CAP alone and combined, same manner as Test 1; conditions: for AUC (area under curve peak) / Mean-PPA (mean of peak pressure amplitude) / PF (peak frequency): value before addition = 100%
# Experimental: as §1
# The respective prokinetic effect of HAS and CAP on peristaltic motility and change of the effect in a combination of these compounds were investigated in the same manner as in Test 1.
# [5] = HAS 3 μM + CAP 0.03 μM versus CAP alone
Compound,AUC (area under curve peak) ([1]; 3 μM) [%],Mean-PPA (mean of peak pressure amplitude) ([1]; 3 μM) [%],PF (peak frequency) ([1]; 3 μM) [%],enhancement of the prokinetic effect on peristaltic motility by combining with HAS (in words) [1],prokinetic effect on peristaltic motility (in words) ([2]; 1 μM),AUC (area under curve peak) ([2]; 1 μM) [%],Mean-PPA (mean of peak pressure amplitude) ([2]; 1 μM) [%],PF (peak frequency) ([2]; 1 μM) [%],prokinetic effect on peristaltic motility (in words) ([2]; 10 μM),AUC (area under curve peak) ([2]; 10 μM) [%],Mean-PPA (mean of peak pressure amplitude) ([2]; 10 μM) [%],PF (peak frequency) ([2]; 10 μM) [%],also measured
"CCCCC[C@H](O)CC(=O)CCc1ccc(O)c(OC)c1 [6-G, 6-gingerol]",174.9,235.8,102.9,potent enhancement,weak prokinetic effect,120.5,141.1,115.0,significant prokinetic effect,188.2,304.2,76.9,
"CCCCC/C=C/C(=O)CCc1ccc(O)c(OC)c1 [6-S, 6-shogaol]",,,,potent enhancement,promoted weakly,133.3,202.6,102.6,prokinetic effect disappeared,73.4,94.6,120.8,AUC (area under curve peak) ([1]; 1 μM): 133.3%; Mean-PPA (mean of peak pressure amplitude) ([1]; 1 μM): 202.6%; PF (peak frequency) ([1]; 1 μM): 115.0%
"CC(C[N+](C)(C)C)OC(N)=O (centres unmarked) [Beth, bethanechol chloride]",,,,,,,,,,,,,AUC (area under curve peak) ([3]; 1 μM): 87.6%; Mean-PPA (mean of peak pressure amplitude) ([3]; 1 μM): 98.9%; PF (peak frequency) ([3]; 1 μM): 153.8%
"COc1cc(CNC(=O)CCCC/C=C/C(C)C)ccc1O [CAP, capsaicin]",,,,,,,,,,,,,AUC (area under curve peak) ([4]; 0.03 μM): 147.1%; Mean-PPA (mean of peak pressure amplitude) ([4]; 0.03 μM): 143.7%; PF (peak frequency) ([4]; 0.03 μM): 108.1%
"C/C=C/C=C/C=C\CC/C=C/C(=O)NCC(C)(C)O [HAS, Hydroxy-α-sanshool]",99.0,101.2,93.0,,,,,,very strong prokinetic effect,227.9,478.2,52.5,"AUC (area under curve peak) ([3]; 3 μM): 130.6%; Mean-PPA (mean of peak pressure amplitude) ([3]; 3 μM): 105.2%; PF (peak frequency) ([3]; 3 μM): 84.6%; enhancement by HAS of the increase in PF induced by Beth ([3]; HAS 3 μM + Beth 1 μM versus Beth alone): twice or more; AUC (area under curve peak) ([4]; 3 μM): 110.2%; Mean-PPA (mean of peak pressure amplitude) ([4]; 3 μM): 105.7%; PF (peak frequency) ([4]; 3 μM): 98.7%; enhancement by HAS of the increase in AUC induced by CAP [4, 5]: ~4.6 times; enhancement by HAS of the increase in PPA induced by CAP [4, 5]: about 9.8 times; prokinetic effect on peristaltic motility (in words) ([2]; 3 μM): no influence; AUC (area under curve peak) ([2]; 3 μM): 121.5%; Mean-PPA (mean of peak pressure amplitude) ([2]; 3 μM): 119.5%; PF (peak frequency) ([2]; 3 μM): 98.3%"

# Source: patent US8623914B2, “Medical composition” (TSUMURA & Co., priority 2011, dated 2014)
